Measurements: US4192896A, “Method of using dialkylphenols in the treatment of mycoplasma diseases” (priority 1979, dated 1980)

Columns and labels:
[1] = tested on: uninfected hamster tracheal explants; assay: Relative activity (explant viability: epithelial integrity x ciliary vigor) of uninfected hamster tracheal explants exposed to 2,4-DMP (toxicity); assay type: cell-based, golden hamster; details: for Relative activity following days of incubation with 2,4-DMP: uninfected explants, scale 0 to 300
Description: Adult golden hamsters (approximately 140 g. male and female) were used as the tissue source. Animals appearing to be disease-free were selected. Tracheas were removed aseptically and sliced into rings. The rings were rinsed and then transfered into sterile Petri dishes containing a shallow layer of minimal essential medium (MEM, with glutamine, NaHCO3, 10% horse serum and 500 units of penicillin G/ml). These organ cultures were incubated for 24 hours at 36° C. in 5% carbon dioxide and then scored for "relative activity" (RA), a measure of explant viability. "Relative Activity" (0 to 300) is the product of the percentage of the epithelial layer which is intact (0 to 100) and the relative vigor of ciliary beating (0 to 3).
Before undertaking further studies the determination of the toxicity of 2,4-DMP toward hamster tracheal explants and Mycoplasma pneumoniae is necessary.

[2] = tested on: M. pneumoniae; assay: Growth of logarithmically growing cultures of M. pneumoniae in liquid culture with 2,4-DMP (CFU/ml); assay type: cell-based, Mycoplasma pneumoniae, strain PI 1428

SMILES: Cc1ccc(O)c(C)c1 [2,4-DMP, 2,4-dimethylphenol]
- reductions in RAs of uninfected explants ([1]; 10^-3 and 10^-4 M): Significant reductions in RAs
- overt cytotoxic effects in uninfected rings ([1]; 10^-5 M or less): no overt cytotoxic effects
- Relative activity following days of incubation with 2,4-DMP ([1]; 10^-3 moles/liter, day 1): 210 ± 19
- Relative activity following days of incubation with 2,4-DMP ([1]; 10^-3 moles/liter, day 2): 155 ± 12
- Relative activity following days of incubation with 2,4-DMP ([1]; 10^-3 moles/liter, day 3): 105 ± 16
- Relative activity following days of incubation with 2,4-DMP ([1]; 10^-3 moles/liter, day 4): 75 ± 16
- Relative activity following days of incubation with 2,4-DMP ([1]; 10^-3 moles/liter, day 5): 55 ± 12
- Relative activity following days of incubation with 2,4-DMP ([1]; 10^-3 moles/liter, day 6): 50 ± 16
- Relative activity following days of incubation with 2,4-DMP ([1]; 10^-3 moles/liter, day 7): 50 ±16
- Relative activity following days of incubation with 2,4-DMP ([1]; 10^-4 moles/liter, day 1): 255 ± 16
- Relative activity following days of incubation with 2,4-DMP ([1]; 10^-4 moles/liter, day 2): 240 ± 33
- Relative activity following days of incubation with 2,4-DMP ([1]; 10^-4 moles/liter, day 3): 200 ± 49
- Relative activity following days of incubation with 2,4-DMP ([1]; 10^-4 moles/liter, day 4): 160 ± 45
- Relative activity following days of incubation with 2,4-DMP ([1]; 10^-4 moles/liter, day 5): 150 ± 27
- Relative activity following days of incubation with 2,4-DMP ([1]; 10^-4 moles/liter, day 6): 140 ± 24
- Relative activity following days of incubation with 2,4-DMP ([1]; 10^-4 moles/liter, day 7): 135 ± 16
- Relative activity following days of incubation with 2,4-DMP ([1]; 10^-5 moles/liter, day 1): 265 ± 12
- Relative activity following days of incubation with 2,4-DMP ([1]; 10^-5 moles/liter, day 2): 270 ± 0
- Relative activity following days of incubation with 2,4-DMP ([1]; 10^-5 moles/liter, day 3): 264 ± 13
- Relative activity following days of incubation with 2,4-DMP ([1]; 10^-5 moles/liter, day 4): 270 ± 0
- Relative activity following days of incubation with 2,4-DMP ([1]; 10^-5 moles/liter, day 5): 264 ± 13
- Relative activity following days of incubation with 2,4-DMP ([1]; 10^-5 moles/liter, day 6): 258 ± 16
- Relative activity following days of incubation with 2,4-DMP ([1]; 10^-5 moles/liter, day 7): 252 ± 16
- CFU/ml following days of culture ([2]; 10^-3 moles/liter, day 0): 2 × 10^4 CFU/ml
- CFU/ml following days of culture ([2]; 10^-3 moles/liter, day 1): 5 × 10^4 CFU/ml
- CFU/ml following days of culture ([2]; 10^-3 moles/liter, day 2): 6.3 × 10^4 CFU/ml
- CFU/ml following days of culture ([2]; 10^-3 moles/liter, day 3): 6.5 × 10^4 CFU/ml
- CFU/ml following days of culture ([2]; 10^-3 moles/liter, day 4): 6.7 × 10^4 CFU/ml
- CFU/ml following days of culture ([2]; 10^-3 moles/liter, day 5): 4.1 × 10^4 CFU/ml
- CFU/ml following days of culture ([2]; 10^-3 moles/liter, day 6): 3.3 × 10^4 CFU/ml
- CFU/ml following days of culture ([2]; 10^-3 moles/liter, day 7): 1.5 × 10^4 CFU/ml
- CFU/ml following days of culture ([2]; 10^-5 moles/liter, day 0): 2 × 10^4 CFU/ml
- CFU/ml following days of culture ([2]; 10^-5 moles/liter, day 1): 1.2 × 10^5 CFU/ml
- CFU/ml following days of culture ([2]; 10^-5 moles/liter, day 2): 7.5 × 10^6 CFU/ml
- CFU/ml following days of culture ([2]; 10^-5 moles/liter, day 3): 2.5 × 10^7 CFU/ml
- CFU/ml following days of culture ([2]; 10^-5 moles/liter, day 4): 6.0 × 10^7 CFU/ml
- CFU/ml following days of culture ([2]; 10^-5 moles/liter, day 6): 1.5 × 10^7 CFU/ml
- CFU/ml following days of culture ([2]; 10^-5 moles/liter, day 7): 4.3 × 10^6 CFU/ml
- CFU/ml following days of culture ([2]; 10^-8 moles/liter, day 0): 2 × 10^4 CFU/ml
- CFU/ml following days of culture ([2]; 10^-8 moles/liter, day 1): 1.5 × 10^5 CFU/ml
- CFU/ml following days of culture ([2]; 10^-8 moles/liter, day 2): 7.2 × 10^6 CFU/ml
- CFU/ml following days of culture ([2]; 10^-8 moles/liter, day 3): 2.4 × 10^7 CFU/ml
- CFU/ml following days of culture ([2]; 10^-8 moles/liter, day 4): 6.3 × 10^7 CFU/ml
- CFU/ml following days of culture ([2]; 10^-8 moles/liter, day 5): 5.2 × 10^7 CFU/ml
- CFU/ml following days of culture ([2]; 10^-8 moles/liter, day 6): 1.1 × 10^7 CFU/ml
- CFU/ml following days of culture ([2]; 10^-8 moles/liter, day 7): 4.2 × 10^6 CFU/ml
- effect on mycoplasmal growth ([2]; higher concentrations (10^-3 M)): inhibit mycoplasmal growth
- effect on growth of the organism ([2]; lower amounts (10^-5 M)): little or no effect on the growth of the organism
